Source: paper PMC7646624 (European journal of medicinal chemistry, 2020)
“Also recorded” adds a separate entry of the source.

How the values were obtained:
[1] = test system: H3K4, H3K27, H3K36, H4K20 methylation; assay: Western blot analysis of other histone methylation marks in MLL-AF9 cells
[2] = test system: H3K79 methylation; assay: Western blot analysis of H3K79 methylation in MLL-AF9 cells
[3] = biological target: T1, GST-DOT1L (Homo sapiens, UniProt Q8TEK3); assay: Saturation transfer difference; type: binding; conditions: SAH added in five-fold molar excess
[4] = biological target: T1, GST-DOT1L; assay: In vitro radio-isotope labeling DOT1L histone methyltransferase; conditions: ratio of IC50 values, initial radio-isotope assays
[5] = biological target: PRMT1 (Homo sapiens, UniProt Q99873); assay: Methyltransferase profiling; type: biochemical
[6] = biological target: PRMT5-MEP50 complex (Homo sapiens, UniProt O14744); assay: Methyltransferase profiling; type: biochemical
[7] = biological target: PRMT6 (Homo sapiens, UniProt Q96LA8); assay: Methyltransferase profiling; type: biochemical
[8] = biological target: T2, PRMT4 (Homo sapiens, UniProt Q86X55); assay: Methyltransferase profiling; type: biochemical
T2 sequence (Q86X55 1-608): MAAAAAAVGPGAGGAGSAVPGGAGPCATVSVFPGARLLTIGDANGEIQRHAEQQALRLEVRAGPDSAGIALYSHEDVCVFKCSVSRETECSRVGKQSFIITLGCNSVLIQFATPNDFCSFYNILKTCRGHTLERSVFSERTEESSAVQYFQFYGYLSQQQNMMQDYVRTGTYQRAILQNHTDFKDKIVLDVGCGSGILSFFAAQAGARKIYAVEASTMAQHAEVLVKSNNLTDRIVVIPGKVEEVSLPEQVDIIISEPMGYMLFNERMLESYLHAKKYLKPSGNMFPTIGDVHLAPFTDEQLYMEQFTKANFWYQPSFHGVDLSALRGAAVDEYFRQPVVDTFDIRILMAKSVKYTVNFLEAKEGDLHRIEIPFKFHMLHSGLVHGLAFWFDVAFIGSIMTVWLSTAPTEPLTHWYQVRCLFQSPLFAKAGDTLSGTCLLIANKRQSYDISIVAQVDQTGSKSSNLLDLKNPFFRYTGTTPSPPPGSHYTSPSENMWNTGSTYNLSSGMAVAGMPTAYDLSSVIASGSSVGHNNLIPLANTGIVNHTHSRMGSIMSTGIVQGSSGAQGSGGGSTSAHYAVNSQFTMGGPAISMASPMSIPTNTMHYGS

[9] = biological target: SUV39H2 (Homo sapiens, UniProt Q9H5I1); assay: Methyltransferase profiling; type: biochemical
[10] = test system: panel of Methyltransferases; assay: Methyltransferase profiling; type: biochemical; conditions: omitted from Table 2
[11] = biological target: PRMT5 Alone (Homo sapiens, UniProt O14744); assay: biochemical
[12] = biological target: PRMT3 (Homo sapiens, UniProt O60678); assay: biochemical
[13] = test system: MLL-AF9 transformed cells; conditions: various doses
[14] = test system: MLL-AF9 transformed cells
[15] = test system: E2A-HLF cells; conditions: DOT1L-independent negative control line

Chain of PRMT1 (Q99873 whole entry): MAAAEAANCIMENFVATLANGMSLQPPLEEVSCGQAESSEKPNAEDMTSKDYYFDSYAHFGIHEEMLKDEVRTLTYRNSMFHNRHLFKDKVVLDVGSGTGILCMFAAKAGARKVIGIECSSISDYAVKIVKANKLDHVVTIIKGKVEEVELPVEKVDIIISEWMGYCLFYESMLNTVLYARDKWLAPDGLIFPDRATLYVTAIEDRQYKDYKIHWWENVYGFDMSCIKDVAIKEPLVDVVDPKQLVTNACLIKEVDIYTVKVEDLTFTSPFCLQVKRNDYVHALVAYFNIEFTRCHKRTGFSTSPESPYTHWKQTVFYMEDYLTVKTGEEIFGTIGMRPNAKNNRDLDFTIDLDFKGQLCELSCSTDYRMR
Chain of PRMT3 (O60678 whole entry): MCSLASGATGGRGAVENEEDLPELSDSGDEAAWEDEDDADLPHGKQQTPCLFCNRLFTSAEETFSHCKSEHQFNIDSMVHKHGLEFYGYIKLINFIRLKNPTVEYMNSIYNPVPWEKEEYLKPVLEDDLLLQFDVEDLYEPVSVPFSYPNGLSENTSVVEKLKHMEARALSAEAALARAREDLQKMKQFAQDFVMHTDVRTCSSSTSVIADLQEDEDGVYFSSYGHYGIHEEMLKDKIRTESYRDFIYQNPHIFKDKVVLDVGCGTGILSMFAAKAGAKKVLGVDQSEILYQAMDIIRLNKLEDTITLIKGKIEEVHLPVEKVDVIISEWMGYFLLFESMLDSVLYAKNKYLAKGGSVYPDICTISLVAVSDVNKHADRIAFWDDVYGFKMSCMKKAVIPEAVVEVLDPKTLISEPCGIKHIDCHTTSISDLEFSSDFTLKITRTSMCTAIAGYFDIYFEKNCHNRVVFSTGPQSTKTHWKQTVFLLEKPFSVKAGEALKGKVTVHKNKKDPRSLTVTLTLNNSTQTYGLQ
Chain of PRMT5-MEP50 complex (O14744 whole entry): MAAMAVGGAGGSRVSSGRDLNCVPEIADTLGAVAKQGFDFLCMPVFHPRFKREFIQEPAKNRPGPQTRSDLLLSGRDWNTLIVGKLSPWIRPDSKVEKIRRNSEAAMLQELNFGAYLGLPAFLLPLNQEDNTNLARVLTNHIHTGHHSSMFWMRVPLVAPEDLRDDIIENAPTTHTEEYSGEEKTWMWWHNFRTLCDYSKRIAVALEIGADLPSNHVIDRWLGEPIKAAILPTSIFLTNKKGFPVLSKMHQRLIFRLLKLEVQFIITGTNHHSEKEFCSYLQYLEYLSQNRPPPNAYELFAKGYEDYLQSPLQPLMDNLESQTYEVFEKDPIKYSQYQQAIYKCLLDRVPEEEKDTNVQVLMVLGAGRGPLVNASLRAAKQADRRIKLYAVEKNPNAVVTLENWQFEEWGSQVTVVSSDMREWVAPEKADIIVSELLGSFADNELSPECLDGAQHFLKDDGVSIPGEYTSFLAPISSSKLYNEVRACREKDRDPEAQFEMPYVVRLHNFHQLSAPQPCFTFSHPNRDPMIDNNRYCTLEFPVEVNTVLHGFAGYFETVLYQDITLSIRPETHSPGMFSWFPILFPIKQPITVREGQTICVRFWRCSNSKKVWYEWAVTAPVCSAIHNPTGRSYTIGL
Chain of PRMT5-MEP50 complex (Q9BQA1 whole entry partner): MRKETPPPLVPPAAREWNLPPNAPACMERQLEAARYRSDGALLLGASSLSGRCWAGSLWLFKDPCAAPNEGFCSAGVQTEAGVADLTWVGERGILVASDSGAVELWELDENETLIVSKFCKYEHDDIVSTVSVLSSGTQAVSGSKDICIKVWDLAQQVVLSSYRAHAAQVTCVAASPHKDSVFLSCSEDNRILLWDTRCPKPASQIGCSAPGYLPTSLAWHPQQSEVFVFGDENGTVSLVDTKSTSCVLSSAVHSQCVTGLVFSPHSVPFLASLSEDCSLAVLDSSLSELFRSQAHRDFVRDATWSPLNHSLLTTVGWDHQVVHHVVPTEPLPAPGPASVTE
Chain of SUV39H2 (Q9H5I1 whole entry): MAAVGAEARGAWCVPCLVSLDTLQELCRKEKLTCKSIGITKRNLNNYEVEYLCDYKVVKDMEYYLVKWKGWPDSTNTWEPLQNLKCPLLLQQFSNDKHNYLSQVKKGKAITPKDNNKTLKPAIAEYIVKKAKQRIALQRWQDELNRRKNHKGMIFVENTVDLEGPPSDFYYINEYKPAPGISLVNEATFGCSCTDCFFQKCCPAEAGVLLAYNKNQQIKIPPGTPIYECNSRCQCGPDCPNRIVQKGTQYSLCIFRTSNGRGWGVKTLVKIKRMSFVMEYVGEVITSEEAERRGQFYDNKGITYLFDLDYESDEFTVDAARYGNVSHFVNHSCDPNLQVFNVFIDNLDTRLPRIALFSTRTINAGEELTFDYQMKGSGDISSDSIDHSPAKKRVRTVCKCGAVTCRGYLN
Chain of PRMT6 (Q96LA8 whole entry): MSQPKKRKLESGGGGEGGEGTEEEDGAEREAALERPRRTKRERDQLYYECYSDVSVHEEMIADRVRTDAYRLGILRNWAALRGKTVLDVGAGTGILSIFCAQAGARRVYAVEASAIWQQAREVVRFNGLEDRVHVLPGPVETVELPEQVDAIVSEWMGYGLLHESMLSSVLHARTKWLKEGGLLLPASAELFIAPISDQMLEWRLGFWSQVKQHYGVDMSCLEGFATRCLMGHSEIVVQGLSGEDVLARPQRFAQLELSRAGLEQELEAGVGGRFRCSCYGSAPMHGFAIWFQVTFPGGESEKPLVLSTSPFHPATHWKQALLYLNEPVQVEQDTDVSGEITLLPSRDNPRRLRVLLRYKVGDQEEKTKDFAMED
T1 sequence (Q8TEK3 1-420): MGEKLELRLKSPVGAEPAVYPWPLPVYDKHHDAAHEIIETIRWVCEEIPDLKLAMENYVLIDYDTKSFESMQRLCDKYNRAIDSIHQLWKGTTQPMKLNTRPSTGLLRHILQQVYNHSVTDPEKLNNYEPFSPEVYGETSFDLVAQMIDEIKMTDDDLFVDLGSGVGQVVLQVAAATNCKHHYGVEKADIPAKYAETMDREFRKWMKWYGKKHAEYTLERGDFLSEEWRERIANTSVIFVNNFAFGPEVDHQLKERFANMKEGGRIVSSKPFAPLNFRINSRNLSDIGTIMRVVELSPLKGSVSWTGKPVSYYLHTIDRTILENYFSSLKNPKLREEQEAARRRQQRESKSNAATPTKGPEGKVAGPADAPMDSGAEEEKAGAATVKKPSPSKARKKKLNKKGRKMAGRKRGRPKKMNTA
Chain of PRMT5 Alone (O14744 whole entry): as the sequence (O14744 whole entry) above

SMILES | IC50 [5] | IC50 [6] | IC50 [7] | IC50 [8] | IC50 [9] | IC50 [12] | other results
Nc1ncnc2c1ncn2[C@@H]1O[C@H](CNCc2ccc(OCC(=O)Nc3ccccn3)cc2)[C@@H](O)[C@H]1O [Compound 2] |  |  |  |  |  |  | H3K4, H3K27, and H3K36 trimethylation states [1]: not changed; cellular H3K79 methylation ([2]; time course of 3, 6 and 9 days): inhibits cellular H3K79 dimethylation; also recorded: reduced; competitive STD NMR with SAH [3]: competed off by SAH
Cc1ccc(NC(=O)c2ncn(CC(=O)NCc3ccc4c(c3)OCO4)n2)cc1C [Compound 9, 1-(2-((benzo[d][1,3]dioxol-5-ylmethyl)amino)-2-oxoethyl)-N-(3,4-dimethylphenyl)-1H-1,2,4-triazole-3-carboxamide] |  |  |  |  |  |  | fold better activity than 8 [4]: 1.5 fold
Cc1ccc(NC(=O)c2ncn(CC(=O)NCc3ccc4c(N)nccc4c3)n2)cc1C [Compound 19, 1-(2-(((1-aminoisoquinolin-6-yl)methyl)amino)-2-oxoethyl)-N-(3,4-dimethylphenyl)-1H-1,2,4-triazole-3-carboxamide] | > 250 µM | > 250 µM | > 250 µM | > 250 µM |  |  | 
Cc1ccc(NC(=O)c2ncn(CC(=O)NCCn3ccc4c(N)ncnc43)n2)cc1C [Compound 20, 1-(2-((2-(4-amino-7H-pyrrolo[2,3-d]pyrimidin-7-yl)ethyl)amino)-2-oxoethyl)-N-(3,4-dimethylphenyl)-1H-1,2,4-triazole-3-carboxamide] |  |  |  |  | > 250 µM |  | 
CC(C)(C)c1ccc(NC(=O)c2ncn(CC(=O)NCc3ccc4c(c3)OCO4)n2)cc1 [Compound 22, 1-(2-((benzo[d][1,3]dioxol-5-ylmethyl)amino)-2-oxoethyl)-N-(4-(tert-butyl)phenyl)-1H-1,2,4-triazole-3-carboxamide] |  |  |  |  |  |  | activity versus all MTs tested in the profiling assays [10]: inactive
CC(C)(C)c1ccc(NC(=O)c2ncn(CC(=O)NCc3ccc4[nH]ncc4c3)n2)cc1 [Compound 23, 1-(2-(((1H-indazol-5-yl)methyl)amino)-2-oxoethyl)-N-(4-(tert-butyl)phenyl)-1H-1,2,4-triazole-3-carboxamide] |  |  |  |  | > 250 µM |  | 
CC(C)(C)c1ccc(NC(=O)c2ncn(CC(=O)NCc3ccc4c(N)nccc4c3)n2)cc1 [Compound 24, 1-(2-(((1-aminoisoquinolin-6-yl)methyl)amino)-2-oxoethyl)-N-(4-(tert-butyl)phenyl)-1H-1,2,4-triazole-3-carboxamide] | > 250 µM | > 250 µM | > 250 µM | > 250 µM | > 250 µM | 41.1 µM | IC50 [11]: 227 µM
CC(C)(C)c1ccc(NC(=O)c2ncn(CC(=O)NCCn3ccc4c(N)ncnc43)n2)cc1 [Compound 25, 1-(2-((2-(4-amino-7H-pyrrolo[2,3-d]pyrimidin-7-yl)ethyl)amino)-2-oxoethyl)-N-(4-(tert-butyl)phenyl)-1H-1,2,4-triazole-3-carboxamide] | > 250 µM | > 250 µM | > 250 µM | > 250 µM | > 250 µM | 149 µM | H3K4me3 and H4K20me2 ([1]; day 6): no significant changes; cellular H3K79 methylation ([2]; day 6): dose-dependent inhibition; cellular H3K79 methylation ([2]; day 9, 30 μM): complete inhibition; cellular H3K79 methylation ([2]; day 9, 10 and 3 μM): significant decrease; cell differentiation, Wright-Giemsa stain [13]: dose-dependent cell differentiation; cell growth inhibition of MLL-AF9 cells ([14]; day 11 at 30 μM): complete cell growth inhibition; killing of MLL-AF9 cells versus E2A-HLF cells ([14]; murine established leukemia cell lines): selectively killed MLL-AF9; IC50 [11]: 187 µM; effect on the growth of E2A-HLF cells [15]: without showing any effect on the growth
Nc1nccc2cc(CNC(=O)Cn3cnc(C(=O)NC4CCCCC4)n3)ccc12 [Compound 28, 1-(2-(((1-aminoisoquinolin-6-yl)methyl)amino)-2-oxoethyl)-N-cyclohexyl-1H-1,2,4-triazole-3-carboxamide] | > 250 µM | > 250 µM | > 250 µM | > 250 µM |  |  | 
Nc1ncnc2c1ncn2[C@@H]1O[C@H](CSCC[C@H](N)C(=O)O)[C@@H](O)[C@H]1O [SAH, S-adenosylhomocysteine, reference compound] |  |  |  |  |  | 1.44 µM | 
